From patent US12247015B2, “3-amino-4H-benzo[e][1,2,4]thiadiazine 1,1-dioxide derivatives as inhibitors of MRGX2” (Solent Therapeutics, LLC, priority 2019, dated 2025)

Biological target: hMRGX2 (CHO-K1 cells overexpressing MRGX2) (Homo sapiens (Human), UniProt Q96LB1)
Test: In vitro inhibition (EC50) of intracellular calcium flux, FLIPR Tetra, substance P stimulation
Type: cell-based
Details: stimulated with MRGX2 ligand substance P, FLIPR Calcium 5, read-out: hMRGX2 Cellular Potency (pEC50) (converted)
Protocol: In Vitro Inhibition (EC50) of Intracellular Calcium Flux
The release of intracellular calcium following stimulation of cells with substance P in the presence or absence of inhibitor compounds was measured using the FLIPR Tetra® system. CHO-K1 cells overexpressing MRGX2 were seeded into 384-well plates (Black clear bottom, TC-treated, Fisher #07-200-655) and incubated overnight to allow for cell attachment. Media was removed, and 1× loading buffer (FLIPR® Calcium 5 assay solution, Molecular Devices, per manufacturer specifications) was added. The plates were incubated at 37° C. for 30 minutes. Test compounds were added to cells (11-point dose response, 10 µM maximum concentration) and fluorescence measured (120 seconds, in real time) using the FLIPR Tetra® system. Immediately following, MRGX2 ligand substance P was added at a final concentration of 1 µM and fluorescence measured (120 seconds, in real time) using the FLIPR Tetra® system. The data for the examples are reported as pEC50.

Chain of hMRGX2 (CHO-K1 cells overexpressing MRGX2) (Q96LB1 whole entry): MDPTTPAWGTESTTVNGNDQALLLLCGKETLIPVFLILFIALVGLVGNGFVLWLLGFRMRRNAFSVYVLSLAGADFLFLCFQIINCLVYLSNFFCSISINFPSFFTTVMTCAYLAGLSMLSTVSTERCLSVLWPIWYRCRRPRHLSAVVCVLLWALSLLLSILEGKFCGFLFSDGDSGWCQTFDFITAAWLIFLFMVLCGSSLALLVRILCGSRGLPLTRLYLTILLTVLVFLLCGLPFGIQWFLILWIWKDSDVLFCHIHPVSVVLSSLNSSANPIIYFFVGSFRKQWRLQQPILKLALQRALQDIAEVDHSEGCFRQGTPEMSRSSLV

SMILES	EC50 [nM]
N#Cc1c(F)cccc1-c1cccc2c1NC(NCc1nccs1)=NS2(=O)=O [Example 126, 2-(1,1-dioxido-3-((thiazol-2-ylmethyl)amino)-4H-benzo[e][1,2,4]thiadiazin-5-yl)-6-fluorobenzonitrile]	70
CC(NC1=NS(=O)(=O)c2cc(F)cc(-c3cccc(F)c3Cl)c2N1)c1nccs1 (stereo not shown) [Example 8, 5-(2-chloro-3-fluorophenyl)-7-fluoro-3-((1-(thiazol-2-yl)ethyl)amino)-4H-benzo[e][1,2,4]thiadiazine 1,1-dioxide]	110
O=S1(=O)N=C(NCc2ccc(F)cc2)Nc2c(-c3ccnc(F)c3Cl)cccc21 [Example 54, 5-(3-chloro-2-fluoropyridin-4-yl)-3-((4-fluorobenzyl)amino)-4H-benzo[e][1,2,4]thiadiazine 1,1-dioxide]	13.2
O=S1(=O)N=C(NCc2ccsn2)Nc2c(-c3cccc(F)c3Cl)cccc21 [Example 64, 5-(2-chloro-3-fluorophenyl)-3-((isothiazol-3-ylmethyl)amino)-4H-benzo[e][1,2,4]thiadiazine 1,1-dioxide]	15.6
COCCNC1=NS(=O)(=O)c2cccc(-c3cc(F)ccc3F)c2N1 [Example 141, 5-(2,5-difluorophenyl)-3-((2-methoxyethyl)amino)-4H-benzo[e][1,2,4]thiadiazine 1,1-dioxide]	366
O=S1(=O)N=C(NCCF)Nc2c(-c3cccc(F)c3F)cccc21 [Example 21, 5-(2,3-difluorophenyl)-3-((2-fluoroethyl)amino)-4H-benzo[e][1,2,4]thiadiazine 1,1-dioxide]	738
CC(C)c1ccc(NC2=NS(=O)(=O)c3cccc(-c4ccn(C)n4)c3N2)cc1 [Example 108, 3-((4-isopropylphenyl)amino)-5-(1-methyl-1H-pyrazol-3-yl)-4H-benzo[e][1,2,4]thiadiazine 1,1-dioxide]	592
CNC1=NS(=O)(=O)c2cccc(-c3cc(F)cc(F)c3F)c2N1 [Example 96, 3-(methylamino)-5-(2,3,5-trifluorophenyl)-4H-benzo[e][1,2,4]thiadiazine 1,1-dioxide]	598
CO[C@@H](C)CNC1=NS(=O)(=O)c2cccc(-c3cc(F)cc(F)c3)c2N1 (single isomer, unassigned) [Example 86]	> 50100
COc1ccc(CCNC2=NS(=O)(=O)c3cccc(-c4cccc(F)c4Cl)c3N2)cc1 [Example 72, 5-(2-chloro-3-fluorophenyl)-3-((4-methoxyphenethyl)amino)-4H-benzo[e][1,2,4]thiadiazine 1,1-dioxide]	39.8
O=S1(=O)N=C(NCC2CCC2)Nc2c(-c3cc(F)cc(F)c3F)cccc21 [Example 130, 3-((cyclobutylmethyl)amino)-5-(2,3,5-trifluorophenyl)-4H-benzo[e][1,2,4]thiadiazine 1,1-dioxide]	87.9
COCCNC1=NS(=O)(=O)c2cccc(-c3cccc(F)c3F)c2N1 [Example 37, 5-(2,3-difluorophenyl)-3-((2-methoxyethyl)amino)-4H-benzo[e][1,2,4]thiadiazine 1,1-dioxide]	394
CO[C@@H](C)CCNC1=NS(=O)(=O)c2cccc(-c3cccc(F)c3Cl)c2N1 [Example 155, (S)-5-(2-chloro-3-fluorophenyl)-3-((3-methoxybutyl)amino)-4H-benzo[e][1,2,4]thiadiazine 1,1-dioxide]	35.2
N#Cc1cnc(CNC2=NS(=O)(=O)c3cccc(-c4ccnc(F)c4Cl)c3N2)s1 [Example 55, 2-(((5-(3-chloro-2-fluoropyridin-4-yl)-1,1-dioxido-4H-benzo[e][1,2,4]thiadiazin-3-yl)amino)methyl)thiazole-5-carbonitrile]	136
CC(C)c1ccc(NC2=NS(=O)(=O)c3cccc(-n4cccn4)c3N2)cc1 [Example 100, 3-((4-isopropylphenyl)amino)-5-(1H-pyrazol-1-yl)-4H-benzo[e][1,2,4]thiadiazine 1,1-dioxide]	766
CCNC1=NS(=O)(=O)c2cccc(-c3cc(F)ccc3F)c2N1 [Example 143, 5-(2,5-difluorophenyl)-3-(ethylamino)-4H-benzo[e][1,2,4]thiadiazine 1,1-dioxide]	443
CCNC1=NS(=O)(=O)c2cccc(-c3ccccc3Cl)c2N1 [Example 42, 5-(2-chlorophenyl)-3-(ethylamino)-4H-benzo[e][1,2,4]thiadiazine 1,1-dioxide]	77.1
CCC(CNC1=NS(=O)(=O)c2cccc(-c3cc(F)cc(F)c3)c2N1)OC (stereo not shown) [Example 87, 5-(3,5-difluorophenyl)-3-((2-methoxybutyl)amino)-4H-benzo[e][1,2,4]thiadiazine 1,1-dioxide]	240
CNC1=NS(=O)(=O)c2cccc(-c3cccc(F)c3F)c2N1 [Example 26, 5-(2,3-difluorophenyl)-3-(methylamino)-4H-benzo[e][1,2,4]thiadiazine 1,1-dioxide]	389

SMILES	EC50 [nM]
Cc1nn(C)cc1-c1cccc2c1NC(NCc1ccc(Cl)cn1)=NS2(=O)=O [Example 59, 3-(((5-chloropyridin-2-yl)methyl)amino)-5-(1,3-dimethyl-1H-pyrazol-4-yl)-4H-benzo[e][1,2,4]thiadiazine 1,1-dioxide]	248
CCc1ccccc1-c1cccc2c1NC(NC)=NS2(=O)=O [Example 91, 5-(2-ethylphenyl)-3-(methylamino)-4H-benzo[e][1,2,4]thiadiazine 1,1-dioxide]	81.8
CC(NC1=NS(=O)(=O)c2cc(F)cc(-c3cccc(F)c3Cl)c2N1)c1cscn1 (stereo not shown) [Example 9, 5-(2-chloro-3-fluorophenyl)-7-fluoro-3-((1-(thiazol-4-yl)ethyl)amino)-4H-benzo[e][1,2,4]thiadiazine 1,1-dioxide]	146
CCNC1=NS(=O)(=O)c2cc(F)cc(-c3ccccc3Cl)c2N1 [Example 15, 5-(2-chlorophenyl)-3-(ethylamino)-7-fluoro-4H-benzo[e][1,2,4]thiadiazine 1,1-dioxide]	62.4
COc1ccccc1CCNC1=NS(=O)(=O)c2cccc(-c3cccc(F)c3Cl)c2N1 [Example 71, 5-(2-chloro-3-fluorophenyl)-3-((2-methoxyphenethyl)amino)-4H-benzo[e][1,2,4]thiadiazine 1,1-dioxide]	82.8
O=S1(=O)N=C(NCC2CCCO2)Nc2c(-c3cccc(F)c3Cl)cccc21 (stereo not shown) [Example 123, 5-(2-chloro-3-fluorophenyl)-3-(((tetrahydrofuran-2-yl)methyl)amino)-4H-benzo[e][1,2,4]thiadiazine 1,1-dioxide]	60.8
O=S1(=O)N=C(NCC(F)F)Nc2c(-c3cccc(F)c3Cl)cc(F)cc21 [Example 10, 5-(2-chloro-3-fluorophenyl)-3-((2,2-difluoroethyl)amino)-7-fluoro-4H-benzo[e][1,2,4]thiadiazine 1,1-dioxide]	39.3
O=S1(=O)N=C(NCc2ccncc2)Nc2c(-c3cc(F)cc(F)c3)cccc21 [Example 82, 5-(3,5-difluorophenyl)-3-((pyridin-4-ylmethyl)amino)-4H-benzo[e][1,2,4]thiadiazine 1,1-dioxide]	1010
CC(C)NC1=NS(=O)(=O)c2cccc(-c3cccc(F)c3Cl)c2N1 [Example 158, 5-(2-chloro-3-fluorophenyl)-3-(isopropylamino)-4H-benzo[e][1,2,4]thiadiazine 1,1-dioxide]	229
O=S1(=O)N=C(NCc2ccccn2)Nc2c(-c3cccc(F)c3Cl)cccc21 [Example 31, 5-(2-chloro-3-fluorophenyl)-3-((pyridin-2-ylmethyl)amino)-4H-benzo[e][1,2,4]thiadiazine 1,1-dioxide]	29.9
COCCNC1=NS(=O)(=O)c2cccc(-c3ccnc(F)c3Cl)c2N1 [Example 36, 5-(3-chloro-2-fluoropyridin-4-yl)-3-((2-methoxyethyl)amino)-4H-benzo[e][1,2,4]thiadiazine 1,1-dioxide]	50.4
O=S1(=O)N=C(NC2CC2)Nc2c(-c3cccc(F)c3Cl)cccc21 [Example 159, 5-(2-chloro-3-fluorophenyl)-3-(cyclopropylamino)-4H-benzo[e][1,2,4]thiadiazine 1,1-dioxide]	53.6
N#Cc1c(F)cccc1-c1cccc2c1NC(NCc1ncco1)=NS2(=O)=O [Example 161, 2-fluoro-6-(3-((oxazol-2-ylmethyl)amino)-1,1-dioxido-4H-benzo[e][1,2,4]thiadiazin-5-yl)benzonitrile]	61.5
CC(C)c1ccc(NC2=NS(=O)(=O)c3cccc(C(C)C)c3N2)cc1 [Example 110, 5-isopropyl-3-((4-isopropylphenyl)amino)-4H-benzo[e][1,2,4]thiadiazine 1,1-dioxide]	35.2
O=S1(=O)N=C(NCCc2cccnc2)Nc2c(-c3cccc(F)c3Cl)cccc21 [Example 69, 5-(2-chloro-3-fluorophenyl)-3-((2-(pyridin-3-yl)ethyl)amino)-4H-benzo[e][1,2,4]thiadiazine 1,1-dioxide]	601
CNC1=NS(=O)(=O)c2cccc(-c3ccc(C)cc3Cl)c2N1 [Example 92, 5-(2-chloro-4-methylphenyl)-3-(methylamino)-4H-benzo[e][1,2,4]thiadiazine 1,1-dioxide]	92.7
O=S1(=O)N=C(NCc2ccc(F)cc2)Nc2c(-c3cc(F)cc(F)c3)cccc21 [Example 75, 5-(3,5-difluorophenyl)-3-((4-fluorobenzyl)amino)-4H-benzo[e][1,2,4]thiadiazine 1,1-dioxide]	34.6
CNC1=NS(=O)(=O)c2cc(F)cc(-c3ccccc3Cl)c2N1 [Example 13, 5-(2-chlorophenyl)-7-fluoro-3-(methylamino)-4H-benzo[e][1,2,4]thiadiazine 1,1-dioxide]	35.5
